Drawing on US20220160747A1, “PHARMACEUTICAL COMPOSITION COMPRISING NOVEL AZOLOPYRIMIDINE HETEROCYCLIC COMPOUND AS ACTIVE INGREDIENT” (KOREA RESEARCH INSTITUTE OF CHEMICAL TECHNOLOGY, priority 2019, published 2022), this text covers IC50 for two molecules.

Experiment [1] has as its target T1, human CD73 recombinant protein (Homo sapiens, UniProt P21589).
T1 construct: made in house
T1 sequence (P21589 27-549): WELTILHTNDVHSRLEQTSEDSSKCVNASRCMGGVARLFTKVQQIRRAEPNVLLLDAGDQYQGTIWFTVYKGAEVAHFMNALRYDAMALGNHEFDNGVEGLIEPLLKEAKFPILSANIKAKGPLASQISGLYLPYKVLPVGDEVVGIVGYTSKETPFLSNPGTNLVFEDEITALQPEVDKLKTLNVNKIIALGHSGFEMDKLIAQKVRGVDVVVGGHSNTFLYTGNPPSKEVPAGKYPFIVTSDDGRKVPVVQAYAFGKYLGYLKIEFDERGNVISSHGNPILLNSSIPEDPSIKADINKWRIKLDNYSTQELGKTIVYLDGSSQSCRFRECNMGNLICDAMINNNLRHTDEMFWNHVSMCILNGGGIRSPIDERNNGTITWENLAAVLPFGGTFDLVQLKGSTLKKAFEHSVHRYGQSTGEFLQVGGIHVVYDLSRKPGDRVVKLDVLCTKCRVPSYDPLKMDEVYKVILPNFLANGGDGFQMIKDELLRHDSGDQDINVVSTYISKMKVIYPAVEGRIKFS
Kind of experiment: Enzyme assay, CD73 (Malachite green kit). Type of experiment: biochemical. The following applies: AMP added, incubation 30 minutes. The protocol: (§1) Referring to a method described in a reference document [Front Pharmacol. 2018 Mar. 1; 9:153], an enzyme assay was performed. Each of human CD73 and CD39 recombinant proteins was produced and then purified and isolated, and used in an enzyme assay. A buffer was basically 25 mM Tris, 5 mM MgCl2, pH 7.5 as an assay buffer, and for assay, human CD73 and CD39 recombinant protein were diluted at an appropriate concentration, respectively, in the assay buffer, adenosine monophosphate (AMP) (Sigma, Catalog #A1752) at an appropriate concentration was added, and then incubation was performed for 30 minutes. At the time, the azolopyrimidine heterocyclic compounds of the present invention were treated for each concentration and incubated together, thereby measuring a degree of inhibiting activity of CD73 or CD39.

In experiment [2] the target is T2, human CD39 recombinant protein (Homo sapiens, UniProt P49961).
T2 construct: made in house
T2 sequence (P49961 1-510): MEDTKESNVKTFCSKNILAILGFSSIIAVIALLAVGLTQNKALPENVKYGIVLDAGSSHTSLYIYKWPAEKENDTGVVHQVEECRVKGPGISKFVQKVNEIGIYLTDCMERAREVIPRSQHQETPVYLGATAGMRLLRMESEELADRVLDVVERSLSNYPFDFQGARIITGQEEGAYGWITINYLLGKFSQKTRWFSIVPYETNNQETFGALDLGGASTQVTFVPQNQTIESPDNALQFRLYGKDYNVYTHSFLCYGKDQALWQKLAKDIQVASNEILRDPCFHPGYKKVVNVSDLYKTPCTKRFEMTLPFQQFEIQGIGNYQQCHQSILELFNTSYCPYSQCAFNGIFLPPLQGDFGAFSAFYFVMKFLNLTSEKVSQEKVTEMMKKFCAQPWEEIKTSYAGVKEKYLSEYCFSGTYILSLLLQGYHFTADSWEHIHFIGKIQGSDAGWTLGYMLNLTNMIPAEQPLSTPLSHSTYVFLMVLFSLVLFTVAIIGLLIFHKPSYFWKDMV
Put plainly: Enzyme assay, CD39 (Malachite green kit). The following applies: AMP added, incubation 30 minutes. Type of experiment: biochemical. The procedure:
as §1

By IC50 is commonly meant the midpoint of a concentration-inhibition curve. `CN(Cc1cccc(F)c1)c1ncnc2c1ncn2[C@@H]1O[C@H](COC(c2ccccc2)(c2ccccc2)c2ccccc2)[C@@H](O)[C@H]1O` [Compound 24, (2R,3R,4S,5R)-2-(6-((3-fluorobenzyl)(methyl)amino)-9H-purin-9-yl)-5-((trityloxy)methyl)tetrahydrofuran-3,4-diol]: the half-maximal inhibitory concentration (IC50) is under 1 µM in experiment [1] and 1.1 to 5 µM in experiment [2].

As to `COc1ccc(C(OC[C@H]2O[C@@H](n3cnc4c(N(C)Cc5cccc(F)c5)ncnc43)[C@H](O)[C@@H]2O)(c2ccccc2)c2ccc(OC)cc2)cc1` [Compound 25, (2R,3S,4R,5R)-2-((bis(4-methoxyphenyl) (phenyl)methoxy)methyl)-5-(6-((3-fluorobenzyl)(methyl)amino)-9H-purin-9-yl)tetrahydrofuran-3,4-diol], the IC50 in experiment [1] and in experiment [2] was under 1 µM each time.
